Measured values published in US20250195678A1, “B-LYMPHOCYTE SPECIFIC AMATOXIN ANTIBODY CONJUGATES” (Heidelberg Pharma Research GmbH, priority 2019, published 2025).

How the values were obtained:
MEC-1 cell line = test: 96-hour CTG cytotoxicity assay on MEC-1; format: cell-based, human; settings: 96-hour CTG assay
Procedure: (§1) FIG. 16. Results of cytotoxicity studies on (A) MEC-1-, (B) MEC-2-, (C) Raji-, (D) Nalm-6-, and (E) Ramos cell lines, respectively, using the obinutuzumab amatoxin conjugates Obi-30.1699 and Obi-30.2115 in a 96-hour CTG assay in comparison to unconjugated α-amanitin.
(§2) Results are depicted in FIG. 14.
(§3) Results are depicted in FIG. 15.
(§4) Cytotoxic activities of the obinutuzumab amatoxin conjugates Obi-30.1699 and Obi-30.2115 were assessed in vitro on MEC-1, MEC-2, Raji, Nalm-6, and Ramos cell lines, respectively, using a 96-hour CTG assay, in comparison to unconjugated α-amanitin. Results are depicted in FIG. 16.

MEC-2 cell line = test: 96-hour CTG cytotoxicity assay on MEC-2; format: cell-based, human; settings: 96-hour CTG assay
Procedure: as §1, §2, §3, §4

Raji cell line = test: 96-hour CTG cytotoxicity assay on Raji; format: cell-based, human; settings: 96-hour CTG assay
Procedure: as §1, §3, §4

[1] = test system: Nalm-6 cells (CD20-negative); test: 96-hour CTG cytotoxicity assay on Nalm-6; format: cell-based; settings: 96-hour CTG assay
Procedure: as §1, §3, §4

Ramos cell line = test: 96-hour CTG cytotoxicity assay on Ramos; format: cell-based; settings: 96-hour CTG assay
Procedure: as §1, §3, §4

RNA-polymerase II = RNA-polymerase II (Homo sapiens, UniProt P24928); settings: read-out: KD of complex with RNA-polymerase II; cited from earlier work

CC[C@H](C)[C@@H]1NC(=O)CNC(=O)[C@@H]2Cc3c([nH]c4cc(O)ccc34)[S+]([O-])C[C@@H](NC(=O)CNC1=O)C(=O)N[C@@H](CC(N)=O)C(=O)N1C[C@H](O)C[C@H]1C(=O)N[C@@H]([C@@H](C)[C@@H](O)CO)C(=O)N2 (stereo in doubt) [α-amanitin, reference compound]
Cytotoxic effect on MEC-1 (in words) (MEC-1 cell line): cytotoxic effects on all cell lines only in the millimolar range
Cytotoxic effect on MEC-2 (in words) (MEC-2 cell line): cytotoxic effects on all cell lines only in the millimolar range
Cytotoxic effect on Raji (in words) (Raji cell line): cytotoxic effects on all cell lines only in the millimolar range
Cytotoxic effect on Nalm-6 (in words) [1]: cytotoxic effects on all cell lines only in the millimolar range
Cytotoxic effect on Ramos (in words) (Ramos cell line): cytotoxic effects on all cell lines only in the millimolar range
Kd (RNA-polymerase II): 3 nM
